Reference: patent publication US20040259764A1, “Reticulocyte depletion signatures” (priority 2002, published 2004)
Like-named read-outs stand apart in the source and are kept apart here. Marks after values point to notes of the source that are not given here.

Columns and labels:
[1] = tested on: Reticulocyte Depletion Signature (Alas2 and peripherin probes), bone marrow
Description: (§1) Compound dosing was based on the acute dose LD50s recorded in published reference or literature sources. […] The MTD (maximum tolerated dose) was then selected as the dose at which the animals […] 5-10% body weight during the 5-day range finding study. […] In addition, the clinical observations must show no or mild clinical signs during the whole of the range-finding study. At the next highest dose, signs and symptoms of adverse effects and exceeding those of the MTD should be seen to occur. Should these criteria not be met, the range-finding study is repeated using a modified dose range.
(§2) After determination of the MTD and FED for a compound, each compound was dissolved in a vehicle for administration on day 1 of the study (additional daily doses were stored as frozen aliquots from this initial formulation). Each compound was administered to three individual male Sprague-Dawley rats for each of the two doses (MTD and FED) for one of four different times (0.25 day, 1 day, 3 days, and 5 days), yielding a total of up to 24 animals per compound study. Vehicle choice was based on solubility of the compound, effect of food on adsorption, and the vehicles used in the literature reports examined during the FED selection investigations, described above. Generally, the route and vehicle in which the FED was defined are used. When there was a choice of routes and vehicles, oral routes were chosen over injection routes. Many compounds, especially oncolytics, are only administerable intravenously. In such cases, the compound was administered as an intravenous formulation into the tail vein. Orally administered compounds were given dissolved in either water, 1% carboxymethycellulose (CMC) or corn oil. Intravenously and intraperitoneally administered compounds were given in 0.9% saline. Subcutaneously administered compounds were given in corn oil. Animal body weights were determined at 1 day and, where appropriate, at 4 days, before necropsy, and clinical observations were made on a daily basis. Control animals were dosed with vehicle only. Three male animals were used for each dose and time combination used for the compound treatment.
(§3) Tissue harvest and handling: After the allocated treatment time, the tissues from the animals were harvested. […] All the tissues collected were divided to provide samples for histopathological analyses, and the remainder of each tissue was then snap-frozen.
(§4) Preparation of enriched mRNA: Punch biopsies were taken from the frozen tissues and were completely homogenized before being processed using the MagNA Pure robot. (Roche Diagnostics Corp., Indianapolis, Ind.) in combination with the MagNA Pure LC RNA Isolation kit II (Roche Diagnostics Corp). The amount of lysis buffer was adjusted to allow 1 ml per 50 mg for liver tissue, or 1 ml per 80 mg for all other tissues. After complete homogenization and before loading of the samples into the 32-well MagNA Pure plate, the samples were syringed 5-6 times using a 20-gauge 3-ml syringe to ensure a smooth solution for robotic processing. Tissue sample processing was performed in duplicate wells (loading 150 μl of homogenized sample and 150 μl of additional lysis buffere to each well) of the MagNA Pure LC, which is programmed to extract mRNA using oligo-dT selection technology into a final elution volume of 100 μl. Poly A(+) RNA sample concentration was performed using a standard ethanol precipitation protocol in the presence of glycogen (50 μg/ml). After precipitation the final purified mRNA sample was resuspended in 7 μl DEPC-treated water and quantified using a Ribogreen high-range assay (Molecular Probes) on the Victor-Wallace II Fluorometer (Perkin-Elmer).

[2] = tested on: Reticulocyte Depletion Signature (Alas2 and peripherin probes), liver
Description: as §1, §2, §3, §4

[3] = tested on: Reticulocyte Depletion Signature (Alas2 and peripherin probes), spleen
Description: as §1, §2, §3, §4

[4] = bone marrow data, signature derived from liver, * = p < 0.01
[5] = liver data, highest training treatment normalised to 100, * = p < 0.01
[6] = spleen data, signature derived from liver, * = p < 0.01

Cc1oncc1C(=O)Nc1ccc(C(F)(F)F)cc1 [LEFLUNOMIDE]
SPS (Bone Marrow) ([1]; rat, in vivo): 0
Signature Projection Score (SPS) ([2]; rat, in vivo): 22
SPS (Spleen) ([3]; rat, in vivo): 71*

CC[C@]1(O)C[C@@H]2CN(CCc3c([nH]c4ccccc34)[C@@](C(=O)OC)(c3cc4c(cc3OC)N(C)[C@H]3[C@@](O)(C(=O)OC)[C@H](OC(C)=O)[C@]5(CC)C=CCN6CC[C@]43[C@@H]65)C2)C1 [VINBLASTINE]
SPS (Bone Marrow) ([1]; rat, in vivo): 0

COc1cccc2c1C(=O)c1c(O)c3c(c(O)c1C2=O)C[C@@](O)(C(C)=O)C[C@@H]3O[C@H]1C[C@H](N)[C@H](O)[C@H](C)O1 [DAUNORUBICIN]
SPS (Bone Marrow) [1, 4]: 0

CC[C@H](C)C(=O)O[C@H]1C[C@@H](C)C=C2C=C[C@H](C)[C@H](CC[C@@H]3C[C@@H](O)CC(=O)O3)[C@H]21 [LOVASTATIN]
Signature Projection Score (SPS) ([2]; rat, in vivo): 26

Clc1ccc(COC(Cn2ccnc2)c2ccc(Cl)cc2Cl)c(Cl)c1 (centres unmarked) [MICONAZOLE]
Signature Projection Score (SPS) ([2]; rat, in vivo): 38

CCO [ETHANOL]
SPS (Bone Marrow) ([1]; rat, in vivo): 0

CC(C)(c1ccc(O)cc1)c1ccc(O)cc1 [BISPHENOL A]
SPS (Bone Marrow) ([1]; rat, in vivo): 0
SPS (Spleen) ([3]; rat, in vivo): 0

Oc1c(Cl)cc(Cl)cc1Sc1cc(Cl)cc(Cl)c1O [BITHIONOL]
SPS (Bone Marrow) ([1]; rat, in vivo): 0
SPS (Spleen) ([3]; rat, in vivo): 27

C[C@]12CC[C@@H]3c4ccc(O)cc4CC[C@H]3[C@@H]1CC[C@@H]2O [BETA ESTRADIOL]
Signature Projection Score (SPS) [2, 5]: 27

CC/C(=C(/CC)c1ccc(O)cc1)c1ccc(O)cc1 [DIETHYLSTILBESTROL]
SPS (Bone Marrow) ([1]; rat, in vivo): 0
Signature Projection Score (SPS) ([2]; rat, in vivo): 33
SPS (Spleen) ([3]; rat, in vivo): 88*

CC1=C(/C=C/C(C)=C/C=C/C(C)=C\C(=O)O)C(C)(C)CCC1 [ISOTRETINOIN]
Signature Projection Score (SPS) ([2]; rat, in vivo): 23

O=C(O)CCCc1ccc(N(CCCl)CCCl)cc1 [CHLORAMBUCIL]
SPS (Bone Marrow) [1, 4]: 0
Signature Projection Score (SPS) [2, 5]: 33
SPS (Spleen) [3, 6]: 0

C#C[C@]1(O)CC[C@H]2[C@@H]3CCc4cc(O)ccc4[C@H]3CC[C@@]21C [ETHINYLESTRADIOL]
Signature Projection Score (SPS) ([2]; rat, in vivo): 75*

CC[C@]1(O)C[C@H]2CN(CCc3c([nH]c4ccccc34)[C@@](C(=O)OC)(c3cc4c(cc3OC)N(C=O)[C@H]3[C@@](O)(C(=O)OC)[C@H](OC(C)=O)[C@]5(CC)C=CCN6CC[C@]43[C@@H]65)C2)C1 [VINCRISTINE]
SPS (Bone Marrow) ([1]; rat, in vivo): 126*

CC(=O)N1CCN(c2ccc(OCC3COC(Cn4ccnc4)(c4ccc(Cl)cc4Cl)O3)cc2)CC1 (centres unmarked) [KETOCONAZOLE]
Signature Projection Score (SPS) ([2]; rat, in vivo): 29

N.N.[Cl][Pt][Cl] [CISPLATIN]
SPS (Bone Marrow) [1, 4]: 0
SPS (Spleen) [3, 6]: 0

CC(C)n1c(/C=C/C(O)CC(O)CC(=O)O)c(-c2ccc(F)cc2)c2ccccc21 (centres unmarked) [FLUVASTATIN]
Signature Projection Score (SPS) ([2]; rat, in vivo): 0

S=C=Nc1cccc2ccccc12 [1-NAPHTHYL ISOTHIOCYANATE]
SPS (Bone Marrow) [1, 4]: 0

CN(C)C=O [N,N-DIMETHYLFORMAMIDE]
SPS (Bone Marrow) [1, 4]: 0
SPS (Spleen) [3, 6]: 0

CN(C)c1nc(N(C)C)nc(N(C)C)n1 [ALTRETAMINE]
SPS (Bone Marrow) ([1]; rat, in vivo): 0
SPS (Spleen) ([3]; rat, in vivo): 0

O=NN(CCCl)C(=O)NCCCl [CARMUSTINE]
SPS (Bone Marrow) [1, 4]: 0
Signature Projection Score (SPS) [2, 5]: 42
SPS (Spleen) [3, 6]: 0

CCC1=C[C@@H]2CN(C1)Cc1c([nH]c3ccccc13)[C@@](C(=O)OC)(c1cc3c(cc1OC)N(C)[C@H]1[C@@](O)(C(=O)OC)[C@H](OC(C)=O)[C@]4(CC)C=CCN5CC[C@]31[C@@H]54)C2 [VINORELBINE]
SPS (Bone Marrow) ([1]; rat, in vivo): 132*

O=C(c1ccc(OCCN2CCCCC2)cc1)c1c(-c2ccc(O)cc2)sc2cc(O)ccc12 [RALOXIFENE]
Signature Projection Score (SPS) ([2]; rat, in vivo): 23

CCN(CC)N=O [N-NITROSODIETHYLAMINE]
SPS (Bone Marrow) [1, 4]: 0
SPS (Spleen) [3, 6]: 0

C[C@]12CC[C@@H]3c4ccc(O)cc4CC[C@H]3[C@@H]1C[C@@H](O)[C@@H]2O [ESTRIOL]
Signature Projection Score (SPS) ([2]; rat, in vivo): 41

O=C1[O][Pt]2([NH][C@@H]3CCCC[C@H]3[NH]2)[O]C1=O [OXALIPLATIN]
SPS (Bone Marrow) [1, 4]: 18

COc1c(C)c2c(c(O)c1C/C=C(\C)CCC(=O)OCCN1CCOCC1)C(=O)OC2 [MYCOPHENOLATE MOFETIL]
SPS (Bone Marrow) [1, 4]: 0

CN(Cc1cnc2nc(N)nc(N)c2n1)c1ccc(C(=O)N[C@@H](CCC(=O)O)C(=O)O)cc1 [METHOTREXATE]
SPS (Bone Marrow) ([1]; rat, in vivo): 0
Signature Projection Score (SPS) ([2]; rat, in vivo): 72*
SPS (Spleen) ([3]; rat, in vivo): 148*

C[C@]12CCC(=O)C=C1CC[C@@H]1[C@@H]2CC[C@@]2(C)[C@H]1CC[C@]2(C)O [17-METHYLTESTOSTERONE]
Signature Projection Score (SPS) [2, 5]: 59*

CS(=O)(=O)OCCCCOS(C)(=O)=O [BUSULFAN]
SPS (Bone Marrow) ([1]; rat, in vivo): 0
Signature Projection Score (SPS) ([2]; rat, in vivo): 43
SPS (Spleen) ([3]; rat, in vivo): 34

ClC(Cl)(Cl)Cl [CARBON TETRACHLORIDE]
SPS (Bone Marrow) [1, 4]: 0

CC(C)(Oc1ccc(CCNC(=O)c2ccc(Cl)cc2)cc1)C(=O)O [BEZAFIBRATE]
Signature Projection Score (SPS) ([2]; rat, in vivo): 16

Cc1ccc(C)c(OCCCC(C)(C)C(=O)O)c1 [GEMFIBROZIL]
Signature Projection Score (SPS) ([2]; rat, in vivo): 18

OC(Cn1cncn1)(Cn1cncn1)c1ccc(F)cc1F [FLUCONAZOLE]
Signature Projection Score (SPS) ([2]; rat, in vivo): 26

C#C[C@]1(OC(C)=O)CC[C@H]2[C@@H]3CCC4=CC(=O)CC[C@@H]4[C@H]3CC[C@@]21C [NORETHINDRONE ACETATE]
Signature Projection Score (SPS) ([2]; rat, in vivo): 26

C[C@@H]1C[C@H]2[C@@H]3CCC4=CC(=O)C=C[C@]4(C)[C@@]3(F)[C@@H](O)C[C@]2(C)[C@@]1(O)C(=O)CO [DEXAMETHASONE]
Signature Projection Score (SPS) ([2]; rat, in vivo): 22

CC#C[C@]1(O)CC[C@H]2[C@@H]3CCC4=CC(=O)CCC4=C3[C@@H](c3ccc(N(C)C)cc3)C[C@@]21C [MIFEPRISTONE]
Signature Projection Score (SPS) ([2]; rat, in vivo): 24

CC(C)c1c(C(=O)Nc2ccccc2)c(-c2ccccc2)c(-c2ccc(F)cc2)n1CC[C@@H](O)C[C@@H](O)CC(=O)O [ATORVASTATIN]
Signature Projection Score (SPS) ([2]; rat, in vivo): 29

N.N.O=C([O-])C1(C(=O)[O-])CCC1.[Pt+2] [CARBOPLATIN]
SPS (Bone Marrow) [1, 4]: 0
SPS (Spleen) [3, 6]: 0

O=NN(CCCl)C(=O)NC1CCCCC1 [LOMUSTINE]
SPS (Bone Marrow) [1, 4]: 0
Signature Projection Score (SPS) [2, 5]: 18
SPS (Spleen) [3, 6]: 0

C[C@H]1O[C@@H](n2cc(F)c(=O)[nH]c2=O)[C@H](O)[C@@H]1O [DOXIFLURIDINE]
SPS (Bone Marrow) ([1]; rat, in vivo): 0
